The source of these data is ChEMBL document CHEMBL5046258, “Anti-inflammatory Dimeric Benzophenones from an Endophytic Pleosporales Species” (J Nat Prod, 2022).

As a reminder, the IC50 is the point on the concentration scale where inhibition reaches its midpoint.

In this test the test system is RAW264.7. Briefly: Antiinflammatory activity in mouse RAW 264.7 cells assessed as inhibition of LPS-induced nitric oxide production measured after 24 hrs by Griess reagent assay. The class given is functional, cell-based. The note with it: RAW264.7, 24 h. (In general: The Griess reaction detects nitrite, a stable product of nitric oxide.)
In the case of `Cc1cc2c(C)cc(O)cc2c(=O)o1`, the IC50 was determined as 46.1 µM. `COc1cc(O)c(C(=O)c2c(C)cc(O)cc2OC)c(O)c1`: the IC50 came to 35.1 µM. Turning to `COc1cc(C)c(C(=O)c2c(O)cc(OC)cc2O[C@@H]2O[C@H](CO)[C@@H](O)[C@H](O)[C@H]2O)c(OC)c1`, the IC50 worked out at 43.3 µM. As for `COc1cc(C)c(C(=O)c2c(O)cc(O)cc2O)c(OC)c1`, the IC50 is 39 µM.

`COc1cc(O)c2c(=O)c3c(C)c(O)c(OC)cc3oc2c1`: the IC50 is 22.4 µM. In the case of `COc1cc(C)c(C(=O)c2c(O)cc(OC)c(Cc3c(O)cc(O)cc3CC(C)=O)c2O)c(OC)c1` it was 18.1 µM; in that of `COc1cc(C)c(C(=O)c2c(O)cc(OC)c(C(CCC(=O)O)c3c(OC)cc(O)c(C(=O)c4c(C)cc(OC)cc4OC)c3O)c2O)c(OC)c1`, 15.6 µM; in that of `COc1cc(C)c(C(=O)c2c(O)cc(OC)cc2O[C@@H]2O[C@H](CO)[C@@H](O)[C@H](O)[C@H]2O)c(O)c1`, 23.3 µM. In the case of `COc1cc(O)c(C(=O)c2c(C)cc(OC)cc2OC)c(O)c1`, the IC50 was found to be 45.2 µM. In the case of `COc1cc(C)c(C(=O)c2c(O)cc(OC)c(Cc3c(OC)cc(O)c(C(=O)c4c(C)cc(OC)cc4OC)c3O)c2O)c(OC)c1` it was 8.8 µM; in that of `COc1cc(O)c(C(=O)Oc2c(C)cc(O)cc2OC)c(O)c1`, 49.7 µM; in that of `Cc1cc(O)cc2oc(=O)c3c(O)cc(O)cc3c12` [ALTERNARIOL], 51.4 µM. In the case of `COc1cc(O)c2c(c1)C1=CC(=O)C(O)=CC1(C)OC2=O` (stereo unspecified) [DEHYDROALTENUSIN], the half-inhibitory concentration (IC50) stood at 39.1 µM. In the case of `C[C@@H]1C[C@H]2[C@@H]3CCC4=CC(=O)C=C[C@]4(C)[C@@]3(F)[C@@H](O)C[C@]2(C)[C@@]1(O)C(=O)CO` [DEXAMETHASONE] it was 22.2 µM; in that of `COc1cc(C)c2c(=O)c3c(O)cc(OC)cc3oc2c1` [LICHEXANTHONE], 19.5 µM; in that of `Cc1cc(O)cc2oc3cc(O)cc(O)c3c(=O)c12` [NORLICHEXANTHONE], 35.2 µM.
